Test results as given in PubChem BioAssay AID1963437 (Molecular Pharmacology Branch, DTP, NCI, 2024).

Tested on: OVCAR-8 complex spheroid, growth inhibition
Experiment: Anticancer human tumor OVCAR-8 cell line growth inhibition [Asc];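 further: spheroids exposed to agents for 7 days before readout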;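 on viability, T/C: percent viability relative to DMSO vehicle wells taken as 100%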
Conditions: for IC50: curve of first compound; for viability, T/C: stronger effect = lower value
Experimental: Multicellular complex tumor spheroid response to apoptosis pathway targeting inhibitors Alrizomadlin, Pelcitoclax, and Dasminapant in combination with a variety of drugs and investigational agents in selected tumor cell lines
The MDM2 inhibitor alrizomadlin, the Bcl-2/Bcl-xL inhibitor pelcitoclax, and the IAPs inhibitor dasminapant were evaluated both individually and in combination with standard of care and investigational anticancer small molecules within a complex spheroid model of solid tumors. . Complex spheroids include a stromal component modeled by human endothelial cells (HUVEC) and fibroblasts modeled by human mesenchymal stem cells (MSCs). The concentration ranges selected for each drug and investigational agent were based upon clinically achievable concentrations if the clinical Cmax of the agent was known.
Compounds. The drugs and investigational agents: alrizomadlin (APG-115; NSC831270), pelcitoclax (APG-1252; NSC835773), dasminapant (APG-1387;NSC834197), TAK-243 (NSC785004), copanlisib (NSC809693), olaparib (NSC753686), talazoparib (NSC767125), cobimetinib (NSC 768068), eltanexor (KPT-8602, NSC 794443), abemaciclib (NSC 768073), sotorasib (NSC818433), adagrasib (NSC 831453), MRTX-1133 (NSC 836407), Iadademestat (ORY1001, NSC 806812), and RMC-4630 (NSC839698), were obtained from the NCI Developmental Therapeutics Program Chemical Repository. The FDA-approved anticancer drug set is available from the Developmental Therapeutics Program at https://dtp.cancer.gov/organization/dscb/obtaining/available plates.htm. […] The stock solutions were prepared in dimethyl sulfoxide (DMSO, Sigma-Aldrich, St. Louis, MO, cat. D2650) at 800-fold the tested concentration and stored at -70 degrees C prior to their use. All drugs and investigational agents were tested over a range starting from a high concentration at or near the clinical Cmax and decreasing in half-log increments. If the clinical Cmax for an agent had not been determined, the highest concentration tested was 10 microM.
The patient-derived cancer (PDC) cell lines include five colon adenocarcinomas: 186277-243-T-J2-PDC, 616215-338-R-J1-PDC, 439559-082-T-J2-PDC, 463943-066-T-J2-PDC, and 519858-162-T-J1-PDC; three pancreatic carcinomas: 323965-272-R-J2-PDC, 521955-158-R6-J3-PDC, and 521955-158-R2-J5-PDC; two uterine sarcomas: 327498-152-R-J2-PDC and 993429-296-R-J1-PDC; two rhabdomyosarcomas: 755483-174-R-J1-PDC and 772245-204-R-J1-PDC; two soft tissue sarcomas: 126254-015-R-J1-PDC and 494315-158-R-J1-PDC; two malignant fibrous histiocytomas: 317291-083-R-J1-PDC and 596521-263-R-J1-PDC; two breast carcinomas: 171881-019-R-J1-PDC and 885512-296-R-J2-PDC; and one ovarian carcinoma: 6556581-035-R-J-PDC were obtained from the NCI PDMR, (https://pdmr.cancer.gov). The established cell lines HSSY-2 synovial sarcoma (RRID:CVCL 8719), SYO-1 synovial sarcoma (RRID:CVCL_7146), MPNST malignant peripheral neural sheath tumor were obtained from the Sloan Kettering Institute. The following established cell lines were purchased from the American Type Culture Collection (ATCC, Manassas, VA), Sor the received from the NCI repository:, PANC-1 pancreatic carcinoma (CRL-1469, RRID:CVCL_0480), OVCAR-5 ovarian carcinoma (RRID:CVCL_1628), OVCAR-8 ovarian carcinoma (RRID:CVCL_1629), , MCF-7 breast carcinoma (CRL-12584, RRID:CVCL_0031), MDA-MB-231 breast carcinoma (CRL-12532, RRID:CVCL_0062), NCI-H1876 small cell lung carcinoma (CRL-5902, RRID:CVCL_1503), NCI-H510A small cell lung carcinoma (HTB-184, RRID:CVCL_1565), NCI-H1417 (CRL-5869, RRID:CVCL_1469), and NCI-H196 small cell lung carcinoma (CRL-5823, RRID:CVCL_1509). Dr. Peter Houghton (Greehey Children's Cancer Research Institute, University of Texas Health Science Center, San Antonio, TX) provided Rh-18 rhabdomyosarcoma (RRID:CVCL_1659). Pooled donor human umbilical vein endothelial cells (HUVEC, Lonza, cat. CC-2519) and human mesenchymal stem cells (hMSC, Lonza, cat. PT-2501) were purchased from Lonza (Walkersville, MD).
Cell Culture. […]

[1] = second compound 0.00949 µM, first compound 0.00316 µM
[2] = second compound 0.00949 µM, first compound 0.01 µM
[3] = second compound 0.00949 µM, first compound 0.0316 µM
[4] = second compound 0.00949 µM, first compound 0.1 µM
[5] = second compound 0.00949 µM, first compound 0.316 µM
[6] = second compound 0.00949 µM, first compound 1 µM
[7] = second compound 0.03 µM, first compound 0.00316 µM
[8] = second compound 0.03 µM, first compound 0.01 µM
[9] = second compound 0.03 µM, first compound 0.0316 µM
[10] = second compound 0.03 µM, first compound 0.1 µM
[11] = second compound 0.03 µM, first compound 0.316 µM
[12] = second compound 0.03 µM, first compound 1 µM
[13] = second compound 0.0949 µM, first compound 0.00316 µM
[14] = second compound 0.0949 µM, first compound 0.01 µM
[15] = second compound 0.0949 µM, first compound 0.0316 µM
[16] = second compound 0.0949 µM, first compound 0.1 µM
[17] = second compound 0.0949 µM, first compound 0.316 µM
[18] = second compound 0.0949 µM, first compound 1 µM
[19] = second compound 0.3 µM, first compound 0.00316 µM
[20] = second compound 0.3 µM, first compound 0.01 µM
[21] = second compound 0.3 µM, first compound 0.0316 µM
[22] = second compound 0.3 µM, first compound 0.1 µM
[23] = second compound 0.3 µM, first compound 0.316 µM
[24] = second compound 0.3 µM, first compound 1 µM
[25] = second compound 0.949 µM, first compound 0.00316 µM
[26] = second compound 0.949 µM, first compound 0.01 µM
[27] = second compound 0.949 µM, first compound 0.0316 µM
[28] = second compound 0.949 µM, first compound 0.1 µM
[29] = second compound 0.949 µM, first compound 0.316 µM
[30] = second compound 0.949 µM, first compound 1 µM
[31] = second compound 3 µM, first compound 0.00316 µM
[32] = second compound 3 µM, first compound 0.01 µM
[33] = second compound 3 µM, first compound 0.0316 µM
[34] = second compound 3 µM, first compound 0.1 µM
[35] = second compound 3 µM, first compound 0.316 µM
[36] = second compound 3 µM, first compound 1 µM

CCN1CCN(Cc2ccc(Nc3ncc(F)c(-c4cc(F)c5nc(C)n(C(C)C)c5c4)n3)nc2)CC1 + CCN1C(C(=O)NC23CCC(C(=O)O)(CC2)CC3)C(c2cccc(Cl)c2F)C2(C(=O)Nc3cc(Cl)ccc32)C12CCCCC2
IC50 (second compound 0.00949 µM): > 1000 nM
IC50 (second compound 0.03 µM): > 1000 nM
IC50 (second compound 0.0949 µM): > 1000 nM
IC50 (second compound 0.3 µM): > 1000 nM
IC50 (second compound 0.949 µM): > 1000 nM
IC50 (second compound 3 µM): > 1000 nM
viability, T/C [1]: 85.2%
viability, T/C [2]: 89.5%
viability, T/C [3]: 80.1%
viability, T/C [4]: 100%
viability, T/C [5]: 90.2%
viability, T/C [6]: 107%
viability, T/C [7]: 98.1%
viability, T/C [8]: 84.4%
viability, T/C [9]: 102%
viability, T/C [10]: 89.4%
viability, T/C [11]: 97.5%
viability, T/C [12]: 117%
viability, T/C [13]: 79.9%
viability, T/C [14]: 92.2%
viability, T/C [15]: 89.8%
viability, T/C [16]: 98.6%
viability, T/C [17]: 95.6%
viability, T/C [18]: 126%
viability, T/C [19]: 89.7%
viability, T/C [20]: 82.2%
viability, T/C [21]: 93.1%
viability, T/C [22]: 93.7%
viability, T/C [23]: 114%
viability, T/C [24]: 121%
viability, T/C [25]: 97.9%
viability, T/C [26]: 86.6%
viability, T/C [27]: 87.5%
viability, T/C [28]: 111%
viability, T/C [29]: 90.6%
viability, T/C [30]: 126%
viability, T/C [31]: 98.5%
viability, T/C [32]: 112%
viability, T/C [33]: 117%
viability, T/C [34]: 118%
viability, T/C [35]: 123%
viability, T/C [36]: 119%

O=C(c1ccc(F)c(F)c1Nc1ccc(I)cc1F)N1CC(O)([C@@H]2CCCCN2)C1 + CCN1C(C(=O)NC23CCC(C(=O)O)(CC2)CC3)C(c2cccc(Cl)c2F)C2(C(=O)Nc3cc(Cl)ccc32)C12CCCCC2
IC50 (second compound 0.00949 µM): > 1000 nM
IC50 (second compound 0.03 µM): > 1000 nM
IC50 (second compound 0.0949 µM): > 1000 nM
IC50 (second compound 0.3 µM): > 1000 nM
IC50 (second compound 0.949 µM): > 1000 nM
IC50 (second compound 3 µM): > 1000 nM
viability, T/C [1]: 102%
viability, T/C [2]: 102%
viability, T/C [3]: 119%
viability, T/C [4]: 153%
viability, T/C [5]: 230%
viability, T/C [6]: 104%
viability, T/C [7]: 106%
viability, T/C [8]: 108%
viability, T/C [9]: 138%
viability, T/C [10]: 161%
viability, T/C [11]: 241%
viability, T/C [12]: 101%
viability, T/C [13]: 101%
viability, T/C [14]: 97%
viability, T/C [15]: 122%
viability, T/C [16]: 168%
viability, T/C [17]: 208%
viability, T/C [18]: 113%
viability, T/C [19]: 105%
viability, T/C [20]: 103%
viability, T/C [21]: 159%
viability, T/C [22]: 173%
viability, T/C [23]: 238%
viability, T/C [24]: 137%
viability, T/C [25]: 97.2%
viability, T/C [26]: 102%
viability, T/C [27]: 163%
viability, T/C [28]: 175%
viability, T/C [29]: 248%
viability, T/C [30]: 139%
viability, T/C [31]: 151%
viability, T/C [32]: 141%
viability, T/C [33]: 183%
viability, T/C [34]: 217%
viability, T/C [35]: 260%
viability, T/C [36]: 161%
